In patent US7928098B2, “Therapeutic and/or preventive agents for a sleep disorder” (Kyowa Hakko Kirin Co., Ltd., priority 2005, dated 2011):

SMILES | melting point
O=C(Nc1nc(-c2ccco2)c(C(=O)c2cccs2)s1)c1ccncc1 [Compound 254, N-[4-(2-Furyl)-5-(thiophen-2-ylcarbonyl)thiazol-2-yl]-pyridine-4-carboxamide] | 208 to 210 °C
N#Cc1ccc(C(=O)Nc2nc(-c3ccco3)c(C(=O)C3CCC(=O)CC3)s2)cc1 [Compound 357, 4-Cyano-N-[4-(2-furyl)-5-(4-oxocyclohexylcarbonyl)-thiazole-2-yl]benzamide] | 211 to 212 °C
Nc1nc(-c2ccco2)c(C(=O)C2CCC2)s1 [Compound 329, 2-Amino-4-(2-furyl)thiazol-5-yl cyclobutyl ketone] | 125 to 160 °C (dec.)
Cc1ncc(C(=O)Nc2nc(-c3ccco3)c(C(=O)C3CCSCC3)s2)cn1 [Compound 494, N-[4-(2-Furyl)-5-(tetrahydrothiopyran-4-ylcarbonyl)thiazol-2-yl]-2-methylpyrimidine-5-carboxamide] | 238 to 240 °C
COc1ccc(C(=O)Nc2nc(-c3ccco3)c(C(=O)c3ccccn3)s2)c(OC)n1 [Compound 132, N-[4-(2-Furyl)-5-(pyridin-2-ylcarbonyl)thiazol-2-yl]-2,6-dimethoxypyridine-3-carboxamide] | 201 to 202 °C
O=C(Nc1nc(-c2ccco2)c(C(=O)C2CCOCC2)s1)c1ccc(N2CCOCC2)nc1 [Compound 408, N-[4-(2-Furyl)-5-(tetrahydropyran-4-ylcarbonyl)thiazol-2-yl]-2-morpholinopyridine-5-carboxamide] | 166 to 170 °C
Cn1cc(C(=O)Nc2nc(-c3ccco3)c(C(=O)C3CCOCC3)s2)cn1 [Compound 424, N-[4-(2-Furyl)-5-(tetrahydropyran-4-ylcarbonyl)thiazol-2-yl]-1-methylpyrazole-4-carboxamide] | 243 to 247 °C
O=C(Nc1nc(-c2ccco2)c(C(=O)C2CCOCC2)s1)c1cnn(-c2ccccc2)c1 [Compound 426, N-[4-(2-Furyl)-5-(tetrahydropyran-4-ylcarbonyl)thiazol-2-yl]-1-phenylpyrazole-4-carboxamide] | 217 to 220 °C
O=C(Nc1nc(-c2ccco2)c(C(=O)C2CCOCC2)s1)c1ccc2c(c1)OCO2 [Compound 401, N-[4-(2-Furyl)-5-(tetrahydropyran-4-ylcarbonyl)thiazol-2-yl]-1,3-benzodioxol-5-carboxamide] | 194 to 196 °C
CCCC(=O)Nc1nc(-c2ccco2)c(C(=O)c2ccccn2)s1 [Compound 97, N-[4-(2-Furyl)-5-(pyridin-2-ylcarbonyl)thiazol-2-yl]-butanamide] | 148 to 149 °C
COCCNC(=O)Nc1nc(-c2ccco2)c(C(=O)c2ccccn2)s1 [Compound 168, N-[4-(2-Furyl)-5-(pyridin-2-ylcarbonyl)thiazol-2-yl]-N′-(2-methoxyethyl)urea] | 150 to 151 °C
O=C(c1ccccn1)c1sc(NC(=O)N2CCOCC2)nc1-c1ccco1 [Compound 164, N-[4-(2-Furyl)-5-(pyridin-2-ylcarbonyl)thiazol-2-yl]morpholine-4-carboxamide] | 144 to 145 °C
O=C(Nc1nc(-c2ccco2)c(C(=O)c2ccccn2)s1)OC(CF)CF [Compound 163, 2-Fluoro-1-(fluoromethyl)ethyl N-[4-(2-furyl)-5-(pyridin-2-ylcarbonyl)thiazol-2-yl]carbamate] | 158 to 159 °C
COc1ccc(C(=O)Nc2nc(-c3ccco3)c(C(=O)C3CCOCC3)s2)cc1OC [Compound 392, N-[4-(2-Furyl)-5-(tetrahydropyran-4-ylcarbonyl)thiazol-2-yl]-3,4-dimethoxybenzamide] | 289 to 292 °C
O=C(c1sc(NC(=O)C2CCCO2)nc1-c1ccco1)C1CCOCC1 (stereo not drawn) [Compound 428, N-[4-(2-Furyl)-5-(tetrahydropyran-4-ylcarbonyl)thiazol-2-yl]tetrahydrofuran-2-carboxamide] | 115 to 117 °C
